Where two headings read alike, the source gives them in different places.
Tests used:
HCV NS5B S365A mutant = target: T1, HCV NS5B S365A mutant (Hepatitis C virus genotype 1b, UniProt Q9WMX2, S2784A); assay: Activity against HCV NS5B S365A mutant; assay type: cell-based; details: for Inhibition of HCV NS5B S3865A mutant: class symbol
T1 construct: HCV NS5B C316Y or S365A mutant as indicated; expressed in transfected cells
Protocol: (§1) The biological activity against HCV 1b, 1a, or 2a is indicated as being *, **, ***, or ****, which corresponds to EC50 ranges of EC50>1000 nM, 100 nM<EC50≦1000 nM, 10 nM<EC50≦100 nM, or EC50≦10 nM, respectively. The biological activity against HCV NS5B C316Y or S365A mutant is indicated as being […], which corresponds to EC50 ranges of EC50>1000 nM, 200 nM<EC50≦1000 nM, […], respectively.

[1] = system: 1b_Huh-Luc/Neo-ET cell line (bicistronic genotype 1b replicon in Huh 7 cells); assay: HCV 1b replicon assay, luciferase readout; assay type: cell-based, HCV genotype 1b; details: Hepatitis C virus
Outline: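 Huh 7 cells persistently carrying a bicistronic genotype 1b luciferase replicon, treated with compound in triplicate the day after plating and incubated 72 h. Luciferase activity measured by Bright-Glo and expressed as percent of untreated control; EC50 from four-parameter fit, repeated several times.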

HCV NS5B C316Y mutant = target: T2, HCV NS5B C316Y mutant (Hepatitis C virus genotype 1b, UniProt Q9WMX2, C2735Y); assay: Activity against HCV NS5B C316Y mutant; assay type: cell-based; details: for Inhibition of HCV N55B C316Y mutant: class symbol
T2 construct: HCV NS5B C316Y or S365A mutant as indicated; expressed in transfected cells
Protocol: as §1

HCV 1a = HCV 1a replicon assay; assay type: cell-based; details: Hepatitis C virus; class symbol; cell marked (HCV genotype 1a replicon); read-out: Inhibition of HCV genotype 1a replicon
Protocol: Compounds of the invention can inhibit multiple genotypes of HCV selected but not limited to 1a, 1h, 2a, 3a, and 4a. The EC50s are measured in the corresponding replicon assays that are similar to HCV 1b replicon assay as described above.
as §1

[2] = Huh-7, 1b_Huh-Luc/Neo-ET cell line, read-out: EC50, half-maximal inhibition of HCV 1b replication
[3] = Huh-7, class symbol, HCV genotype 1b replicon, read-out: Inhibition of HCV genotype 1b replicon
[4] = Huh-7, numeric value, HCV genotype 1b replicon, read-out: Inhibition of HCV genotype 1b replicon (EC50)

T2 sequence (Q9WMX2 2420-3010 C2735Y): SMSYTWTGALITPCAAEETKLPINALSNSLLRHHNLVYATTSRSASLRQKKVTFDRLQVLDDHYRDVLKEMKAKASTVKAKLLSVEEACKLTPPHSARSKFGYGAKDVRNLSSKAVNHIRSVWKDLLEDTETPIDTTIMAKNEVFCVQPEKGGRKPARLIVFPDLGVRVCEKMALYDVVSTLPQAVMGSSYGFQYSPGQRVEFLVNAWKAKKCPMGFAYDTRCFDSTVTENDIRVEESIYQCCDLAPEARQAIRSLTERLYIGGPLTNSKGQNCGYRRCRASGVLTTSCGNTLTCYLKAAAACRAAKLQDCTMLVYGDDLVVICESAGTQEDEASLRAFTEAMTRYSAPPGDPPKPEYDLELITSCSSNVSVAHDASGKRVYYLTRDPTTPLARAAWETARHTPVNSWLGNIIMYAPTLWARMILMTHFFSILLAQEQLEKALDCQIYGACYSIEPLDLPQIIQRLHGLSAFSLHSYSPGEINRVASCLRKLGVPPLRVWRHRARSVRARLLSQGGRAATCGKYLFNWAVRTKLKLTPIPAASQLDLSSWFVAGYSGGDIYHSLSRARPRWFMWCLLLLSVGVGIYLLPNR
T1 sequence (Q9WMX2 2420-3010 S2784A): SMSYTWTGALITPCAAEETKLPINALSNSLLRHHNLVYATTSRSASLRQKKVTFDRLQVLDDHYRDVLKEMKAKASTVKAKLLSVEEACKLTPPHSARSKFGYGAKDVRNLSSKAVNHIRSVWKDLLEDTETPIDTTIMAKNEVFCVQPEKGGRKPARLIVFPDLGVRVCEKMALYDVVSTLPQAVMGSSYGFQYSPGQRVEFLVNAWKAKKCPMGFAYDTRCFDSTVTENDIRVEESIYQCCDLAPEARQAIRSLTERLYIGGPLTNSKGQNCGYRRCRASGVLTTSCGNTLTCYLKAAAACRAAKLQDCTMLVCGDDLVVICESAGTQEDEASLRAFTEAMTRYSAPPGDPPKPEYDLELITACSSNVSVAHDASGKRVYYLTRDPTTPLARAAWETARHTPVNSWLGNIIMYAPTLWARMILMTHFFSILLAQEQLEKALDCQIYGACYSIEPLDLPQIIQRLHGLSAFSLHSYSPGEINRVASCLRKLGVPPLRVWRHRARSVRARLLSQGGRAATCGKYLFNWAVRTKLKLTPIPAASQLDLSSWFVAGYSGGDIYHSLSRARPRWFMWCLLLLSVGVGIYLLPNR

| SMILES | EC50 (HCV NS5B S365A mutant) | EC50 [1, 2] | EC50 [1, 3] | EC50 (HCV NS5B C316Y mutant) | Inhibition of HCV NS5B S3865A mutant (HCV NS5B S365A mutant) | Inhibition of HCV N55B C316Y mutant (HCV NS5B C316Y mutant) | EC50 [1, 4] | EC50 (HCV 1a) |
| --- | --- | --- | --- | --- | --- | --- | --- | --- |
| CNC(=O)c1c(-c2ccc(F)cc2)oc2cc3c(cc12)[C@H](C)OC1(CC1)CN3S(C)(=O)=O (single isomer, unassigned) [Compound B193] | 200 to 1000 nM | 10 to 100 nM | 10 to 100 nM | 200 to 1000 nM | – | – | – | – |
| CNC(=O)c1c(-c2ccc(F)cc2)oc2cc3c(cc12)[C@H](C)NC(=O)CN3S(C)(=O)=O (single isomer, unassigned) [Compound B208] | – | ≤ 10 nM | < 10 nM | – | ††† | ††† | – | – |
| CNC(=O)c1c(-c2ccc(F)cc2)oc2cc3c(cc12)CCCN3S(C)(=O)=O [Compound B1] | – | – | 100 to 1000 nM | – | ††† (EC50 ≦ 200 nM) | ††† (EC50 ≦ 200 nM) | – | – |
| CS(=O)(=O)N1CCCCc2cc3c(-c4ncc[nH]4)c(-c4ccc(F)cc4)oc3cc21 [Compound B67] | 200 to 1000 nM | ≤ 10 nM | – | – | – | ††† | 5.2 nM | – |
| CNC(=O)c1c(-c2ccc(Oc3ccc(F)cc3)cc2)oc2cc3c(cc12)[C@H](C)OCCN3S(C)(=O)=O [Compound B118] | – | ≤ 10 nM | – | – | ††† | ††† | 3.1 nM | – |
| CC1CCCN(S(C)(=O)=O)c2cc3oc(-c4ccc(F)cc4)c(-c4ncc[nH]4)c3cc21 (centres unmarked) [Compound B120] | – | ≤ 10 nM | – | – | ††† | ††† | – | < 10 nM |
| CNC(=O)c1c(-c2ccc(F)cc2)oc2cc3c(cc12)C(C)N(CCO)CCN3S(C)(=O)=O (centres unmarked) [Compound B145] | 200 to 1000 nM | ≤ 10 nM | < 10 nM | – | – | ††† | – | – |
| CNC(=O)c1c(-c2ccc(F)cc2)oc2cc3c(cc12)C(C)N(CCS(C)(=O)=O)CCN3S(C)(=O)=O (centres unmarked) [Compound B156] | – | 10 to 100 nM | 10 to 100 nM | – | ††† | ††† | – | – |
| CC1c2cc3c(-c4ncc[nH]4)c(-c4ccc(F)cc4)oc3cc2N(S(C)(=O)=O)CCN1C (centres unmarked) [Compound B171] | 200 to 1000 nM | ≤ 10 nM | < 10 nM | – | – | ††† | – | – |
| CC1OCCN(S(C)(=O)=O)c2cc3oc(-c4ccc(F)cc4)c(-c4ncc[nH]4)c3cc21 (centres unmarked) [Compound B197] | 200 to 1000 nM | ≤ 10 nM | < 10 nM | – | – | ††† | – | – |
| CNC(=O)c1c(-c2ccc(Oc3ccc(F)cc3)cc2)oc2cc3c(cc12)[C@H](C)O[C@H](CS(C)(=O)=O)CN3S(C)(=O)=O [Compound B207] | – | – | < 10 nM | – | ††† | ††† | – | – |
| CNC(=O)c1c(-c2ccc(F)cc2)oc2cc3c(cc12)[C@H](C)O[C@H](CO)CN3S(C)(=O)=O [Compound B212] | – | ≤ 10 nM | < 10 nM | – | ††† | ††† | – | – |
| CNC(=O)c1c(-c2ccc(F)cc2)oc2cc3c(cc12)[C@H](C)O[C@H](CS(C)(=O)=O)CN3S(C)(=O)=O [Compound B214] | – | – | < 10 nM | – | ††† | ††† | – | – |
| CNC(=O)c1c(-c2ccc(Oc3ccc(F)cc3)cc2)oc2cc3c(cc12)[C@H](C)O[C@H](CO)CN3S(C)(=O)=O [Compound B232] | – | ≤ 10 nM | < 10 nM | – | ††† | ††† | – | – |
